In patent US8871815B2, “Therapeutic compounds” (Signature Therapeutics, Inc., priority 2007, dated 2014):

Experiments:
pigs = assay: Hemodynamic effects, arterial blood gas and serum chemistry in pigs, IV infusion; type: in vivo, pig; set-up: ABEc (acid base excess, corrected) / Glucose / Lactate: unit not given here; conditions: for ABEc (acid base excess, corrected) / Glucose / Lactate / Potassium / pC02 / pH / pO2: arterial blood, 0.384 mg/kg/min x 20 min IV
Procedure: Anesthesia was induced with isoflurane. Intravascular access was obtained from an ear vein. Each pig was intubated and mechanically ventilated.
ECG was monitored throughout the study. […] Body temperature was maintained at 37° C.
Arterial blood gas samples from pigs infused with Compound 1 were taken and analyzed for blood gas and serum chemistry values; mean values are reported in Table 4.

Beagle dogs = assay: Hemodynamic effects (blood pressure) in beagle dogs, bolus IV; type: in vivo, dog; conditions: 4 min after administration
Procedure: The study was a crossover design. […] The MTD was defined as the dose that reduced mean arterial blood pressure (MAP) by 50% or to less than 50 millimeters of mercury (mmHg or mm Hg). All animals received supplemental oxygen and, if needed, ventilatory support after 4 min of apnea.
Hemodynamic data, such as mean arterial pressure (MAP), were recorded at baseline, 1, 2, 4, 8, 15, 20 and 30 min. Compound 1 was administered at 5, 10, 15 and 30 mg/kg to 3, 6, 6 and 3 dogs respectively. […] Data were analyzed with a 2-way ANOVA followed by t-test with Bonferroni correction for multiple comparisons.

CC[C@@H](C)c1cccc([C@H](C)CC)c1O [Compound 1]
metabolic alterations such as metabolic acidosis or increased lactate (pigs; IV infusion, pigs): did not produce any significant metabolic alterations | reduction of cardiac output compared to propofol (pigs; IV infusion, pigs): no significant difference | lowest HR measured (pigs; IV infusion, pigs (Compound 1 0.384, propofol 0.750 mg/kg/min)): 129±6 bpm | MAP (mean arterial pressure) (pigs; IV infusion, pigs (Compound 1 0.384, propofol 0.750 mg/kg/min), FIG. 1 in mm Hg): 106±3 | ABEc (acid base excess, corrected) (pigs; pigs, Min 0): 5.6 | Glucose (pigs; pigs, Min 0): 99.6 | Lactate (pigs; pigs, Min 0): 1.43 | Potassium (pigs; pigs, Min 0): 3.80 | pC02 (pigs; pigs, Min 0): 38.8 | pH (pigs; pigs, Min 0): 7.4861 | pO2 (pigs; pigs, Min 0): 390 | ABEc (acid base excess, corrected) (pigs; pigs, Min 4): 5.8 | Glucose (pigs; pigs, Min 4): 102.9 | Lactate (pigs; pigs, Min 4): 1.24 | Potassium (pigs; pigs, Min 4): 3.71 | pC02 (pigs; pigs, Min 4): 37.2 | pH (pigs; pigs, Min 4): 7.5027 | pO2 (pigs; pigs, Min 4): 410 | ABEc (acid base excess, corrected) (pigs; pigs, Min 20): 5.7 | Glucose (pigs; pigs, Min 20): 102.0 | Lactate (pigs; pigs, Min 20): 1.20 | Potassium (pigs; pigs, Min 20): 3.84 | pC02 (pigs; pigs, Min 20): 36.8 | pH (pigs; pigs, Min 20): 7.5066 | pO2 (pigs; pigs, Min 20): 419 | ABEc (acid base excess, corrected) (pigs; pigs, Min 80): 5.4 | Glucose (pigs; pigs, Min 80): 99.7 | Lactate (pigs; pigs, Min 80): 1.01 | Potassium (pigs; pigs, Min 80): 4.00 | pC02 (pigs; pigs, Min 80): 37.5 | pH (pigs; pigs, Min 80): 7.4943 | pO2 (pigs; pigs, Min 80): 402 | ABEc (acid base excess, corrected) (pigs; pigs, Min 140): 4.1 | Glucose (pigs; pigs, Min 140): 100.7 | Lactate (pigs; pigs, Min 140): 0.95 | Potassium (pigs; pigs, Min 140): 4.10 | pC02 (pigs; pigs, Min 140): 37.2 | pH (pigs; pigs, Min 140): 7.4803 | pO2 (pigs; pigs, Min 140): 399 | ABEc (acid base excess, corrected) (pigs; pigs, Min 200): 3.2 | Glucose (pigs; pigs, Min 200): 102.4 | Lactate (pigs; pigs, Min 200): 0.96 | Potassium (pigs; pigs, Min 200): 4.06 | pC02 (pigs; pigs, Min 200): 37.6 | pH (pigs; pigs, Min 200): 7.4641 | pO2 (pigs; pigs, Min 200): 356 | MAP % change from baseline (Beagle dogs; 10 mg/kg bolus IV): +11% | MAP % change from baseline (Beagle dogs; 15 mg/kg bolus IV): −25% | MAP % change from baseline (Beagle dogs; 30 mg/kg bolus IV): −41%
